{"source": "patent US6544957B2", "about": "“Methods and reagents for facilitating transcription” (The Johns Hopkins University, priority 2000, dated 2003)", "key": {"[1]": {"settings": "Richon et al., 1996; cited from earlier work"}, "[2]": {"system": "PANC-1 cells containing the stably integrated p6SBE-luc", "test": "TGFβ/Smad4 signal transduction assay with stably integrated p6SBE-luc (FIGS. 6B, 6C)", "format": "cell-based", "settings": "absence or presence of TGFβ 1 ng/ml", "procedure": "FIGS. 6A-6C. Proportional effects of scriptaid and TSA on the TGFβ/Smad4 signal transduction assay. FIG. 6A, p6SBE-luc or p6MBE-luc was cotransfected with pCMV-β into PANC-1 cells. Transfected cells were untreated or treated with TGFβor/and scriptaid for 18 hours. […] Relative luciferase induction was determined after normalization to the TGFβ-non-inducible pCMV-β control, itself subject to scriptaid facilitation (see FIG. 7). Data represent averages of two experiments and SEM. FIG. 6B, total luciferase induction in PANC-1 cells containing the stably integrated p6SBE-luc after treatment with scriptaid or TSA in the absence or presence of TGFβ (1 ng/ml). FIG. 6C, relative luciferase induction in PANC-1 cells containing the stably integrated p6SBE-luc after treatment with scriptaid or TSA in the absence or presence of TGFβ (1 ng/ml ) determined after normalization to the values observed with the HDAC inhibitor alone.\nCell Lines. PANC-1 and MDA-MB-468 cell lines were purchased from ATCC (Manassas, Va.). Stable transfectants were generated by co-transfection of pcDNA3.1 (Invitrogen, Carlsbad, Calif.) and p6SBE-luc into PANC-1 cells with LipofectAMINE (Life Technologies, Inc.). Transfected cells were diluted and selected in multiple 96-well plates in the presence of 0.5 mg/ml of G418 (Life Technologies, Inc.). […]"}, "[3]": {"system": "PANC-1 cells having stably integrated p6SBE-luc", "test": "Dose response of transcriptional facilitation in stably transfected cell line (FIG. 3)", "format": "cell-based", "settings": "for optimal concentration for transcriptional facilitation: PANC-1 stably integrated p6SBE-luc, luciferase; for transcriptional facilitation (in words): at concentrations corresponding to scriptaid", "procedure": "FIG. 3. Dose responses of TSA and scriptaid transcriptional facilitation in a stably transfected cell line. Luciferase activity was determined using PANC-1 cells having stably integrated p6SBE-luc at the indicated concentration of compounds. Data represent averages of two to three experiments and SEM.\n(§1) Cell Lines. PANC-1 and MDA-MB-468 cell lines were purchased from ATCC (Manassas, Va.). Stable transfectants were generated by co-transfection of pcDNA3.1 (Invitrogen, Carlsbad, Calif.) and p6SBE-luc into PANC-1 cells with LipofectAMINE (Life Technologies, Inc.). Transfected cells were diluted and selected in multiple 96-well plates in the presence of 0.5 mg/ml of G418 (Life Technologies, Inc.). Single clones were expanded and tested for basal luciferase expression and TGFβ inducibility. One clone was chosen on basis of high (6 to 8-fold) induction of luciferase by 0.5 ng/ml TGFβ (R&D Systems, Minneapolis, Minn.).\n(§2) Compound Screening. Each compound of the library (DIVERSet, ChemBridge, San Diego, Calif.) was dissolved and diluted in DMSO at 1 mg/ml. Cells were plated in 96-well cluster plates (Corning, Cambridge, Mass.) and incubated with each compound, after further dilution in culture media to the final concentration of 2 μg/ml, for 16-18 hours. Luciferase activity was measured upon addition of Steady-Glo substrate (Promega). Up to sixteen 96-well plates could be assembled in a Wallac Trilux photodetector (Wallac, Gaithersburg, Md.) for measurement. All readouts from each experiment were compared to the control wells, and a number reflecting the relative increase in luciferase activity was calculated for each chemical using Excel (Microsoft, Redmond, Wash.) spreadsheets.\nThe entire library, consisting of 16,320 compounds, was screened. Eleven compounds were associated with a two to five-fold induction of luciferase activity, and one with a twelve-fold activation (FIG. 1). Further studies on the latter compound (ID#217444, 6-(1,3-Dioxo-1H,3H-benzo[de]isoquinolin-2-yl)-hexanoic acid hydroxyamide, we termed scriptaid) are reported here (FIG. 2). […] The results were validated by repeated determinations in the screening assay and subsequently by a dose-response curve performed on PANC-1 cells containing stably integrated p6SBE-luc (FIG. 3)."}, "[4]": {"system": "PANC-1 and MDA-MB-468 cells", "test": "Survival curve, trypan-blue exclusion", "format": "cell-based", "settings": "18-hour incubation; for cytotoxicity (in words): at optimal concentration for transcriptional facilitation", "procedure": "FIGS. 5A to 5B. Effects of compounds on cell survival. […] Data represent averages of two to four experiments and SEM. FIG. 5A, scriptaid. FIG. 5B, TSA.\nSurvival Curve. Equal numbers of cells were plated in six-well plates in the absence or presence of scriptaid or TSA at different concentrations. After 18 hours of incubation, cell numbers were determined by trypan-blue exclusion. Percent survival of the treated cells was calculated in comparison to the untreated sample, which was considered to represent 100%."}, "[5]": {"system": "p6SBE-luc, p6MBE-luc, pCMVβ, pUB6/V5-lacZ reporters in PANC-1 or MDA-MB-468 cells", "test": "Transient transfection reporter assay (luciferase, β-gal)", "format": "cell-based", "settings": "18 hours; for facilitation of reporter expression after transient transfection (in words): SV40, CMV and ubiquitin c promoters, PANC-1 or MDA-MB-468", "procedure": "FIGS. 7A-7C. Scriptaid and TSA transcriptional facilitation after transient transfection. PANC-1 or MDA-MB-468 cells were transiently transfected for 4 hours with constructs containing various promoters. Transfected cells were untreated or treated with scriptaid or TSA for 18 hours. Data represent averages of two to five experiments and SEM. FIG. 7A, SV40 promoter and luciferase reporter gene. FIG. 7B, CMV promoter and β-gal reporter gene. FIG. 7C, human ubiquitin c promoter and β-gal reporter gene.\nTransfection Assay. Each transient transfection experiment was done in duplicate in six-well plates. LipofectAMINE (Life Technologies, Inc.) was used as directed by the manufacturer. The DNA-LipofectAMINE mixture was removed from cells after 4-5 hours of transfection, and culture media with or without compounds or TGFβ was then added to the cells. Sixteen to eighteen hours from the start of the transfection, cell lysates were prepared with Reporter Lysis Buffer (Promega) for luciferase and β-gal assays. Luciferase was measured using The Luciferase Assay System (Promega) and β-gal assay was performed as previously described (Dai et al., 1998). Studies of the SV40 promoter included all experiments done with p6SBE-luc, p6MBE-luc, and pGL3-control (Promega) plasmids. Studies of the CMV promoter were done using pCMVβ. (Clonetech, Palo Alto, Calif.), and those of human ubiquitin c promoter were done using pUB6/V5-lacZ (Invitrogen)."}, "[6]": {"system": "histone deacetylase (HDAC) in PANC-1 cells", "test": "Immunoblotting assay of histone acetylation", "format": "cell-based", "experimental": "PANC-1 cells were untreated or treated with scriptaid (2 μg/ml) or TSA (0.1 or 0.32 μg/ml). Acetylated histones were detected by anti-human acetyl-lysine antibody immunoblot. Immunoblotting Assay of Histone Acetylation. PANC-1 cells were treated with 2 μg/ml of scriptaid (ChemBridge), 0.1 μg/ml, or 0.32 μg/ml of trichostatin A (Sigma, St. Louis, Mo.) for 18 hours in culture media. Treated and untreated cells were harvested with trypsin-EDTA (Life Technologies, Inc.), washed with phosphate-buffered saline (Life Technologies, Inc.), and resuspended in a protein sample buffer. Protein concentration was determined by BCA protein assay reagents (Pierce, Rockford, Ill.). Fifty micrograms of proteins from each sample was loaded on a 12% denaturing polyacrylamide gel. Proteins were subsequently transferred to a nylon membrane (Imobilon P, Millipore, Burlington, Mass.) using Milliblot-Graphite Electroblotter I (Millipore). The nylon membrane was incubated with rabbit anti-human acetyl-lysine antibody (#06-933, Upstate Biotechnology, Waltham, Mass.) at 1:1000 dilution, followed by goat anti-rabbit antibody coupled to horseradish peroxidase (Pierce) at 1:2000 dilution, developed with SuperSignal substrates (Pierce), and detected by film (BioMax, Kodak, Rochester, N.Y.)."}, "[7]": {"system": "p6SBE-luc reporter construct in PANC-1 cells", "test": "Compound screening, luciferase activity in PANC-1 cells with stably integrated p6SBE-luc", "format": "cell-based", "settings": "2 μg/ml compound, 16-18 hours, initial library screen", "procedure": "as §1\nas §2, with “spreadsheets. […]” for “spreadsheets.”"}}, "note": "Values joined by “and” are separate entries in the source; they are usually repeats but may differ in a detail not shown here. Equal entries are not always repeated."}
{"smiles": "O=C(/C=C/c1cccc(C(=O)NO)c1)NO", "note": "[CBHA]", "values": [{"measurement": "optimal concentration reported", "setting": "[1]", "result": 4, "unit": "µM"}]}
{"smiles": "O=C(CCCCCCC(=O)Nc1ccccc1)NO", "note": "[SAHA]", "values": [{"measurement": "optimal concentration reported", "setting": "[1]", "result": 2, "unit": "µM"}]}
{"smiles": "O=C(CCCCCN1C(=O)c2cccc3cccc(c23)C1=O)NO", "note": "[scriptaid, 6-(1,3-Dioxo-1H,3H-benzo[de]isoquinolin-2-yl)-hexanoic acid hydroxyamide]", "values": [{"measurement": "effect on TGFβ-stimulated induction of integrated p6SBE-luc (in words)", "setting": "[2]", "result": "proportionally enhance the induction of an integrated p6SBE-luc construct without interfering with TGFβ-stimulated transcriptional responses"}, {"measurement": "optimal concentration for transcriptional facilitation", "setting": "[3]", "result": "6 to 8", "unit": "µM"}, {"measurement": "optimal concentration for transcriptional facilitation", "setting": "[3]; listed as Scriptaid", "result": "2-2.5 μg/ml and 6-8 μM"}, {"measurement": "survival", "setting": "[4]; at its optimal concentration for transcriptional facilitation, cell line not named", "result": 80, "unit": "%"}, {"measurement": "cytotoxicity (in words)", "setting": "[4]", "result": "not lethal to one cell line"}, {"measurement": "facilitation of reporter expression after transient transfection (in words)", "setting": "[5]", "result": "capable of inducing high expression"}, {"measurement": "increase of transcription of all three reporters (p6SBE-luc, p6MBE-luc, pCMVβ)", "setting": "[5]; transient cotransfection in PANC-1 cells", "result": "twelve-fold"}, {"measurement": "increase in histone acetylation", "setting": "[6]; cultured cells, scriptaid 2 μg/ml, 18 hours, anti-acetyl-lysine immunoblot", "result": "greater than 100 fold"}, {"measurement": "induction of luciferase activity relative to control wells", "setting": "[7]", "result": "twelve-fold"}]}
{"smiles": "CC(=O)NCCCCCCNC(C)=O", "note": "[HMBA]", "values": [{"measurement": "optimal concentration reported", "setting": "[1]", "result": 5000, "unit": "µM"}]}
{"smiles": "CC(/C=C/C(=O)NO)=C\\[C@@H](C)C(=O)c1ccc(N(C)C)cc1", "note": "[TSA, trichostatin A]", "values": [{"measurement": "effect on TGFβ-stimulated induction of integrated p6SBE-luc (in words)", "setting": "[2]", "result": "proportionally enhance the induction of an integrated p6SBE-luc construct without interfering with TGFβ-stimulated transcriptional responses"}, {"measurement": "cytotoxicity (in words)", "setting": "[4]", "result": "cytotoxic for two cell lines"}, {"measurement": "survival", "setting": "[4]; minimal toxic concentration 0.1 μg/ml", "result": "85-90%"}, {"measurement": "facilitation of reporter expression after transient transfection (in words)", "setting": "[5]", "result": "less predictable at its optimal concentration"}, {"measurement": "inhibition of endogenous histone deacetylation (in words)", "setting": "[6]; TSA 0.1 μg/ml, compared with scriptaid 2 μg/ml and TSA 0.32 μg/ml", "result": "less efficient"}]}
{"smiles": "O=C(CCCN1C(=O)c2cccc3cccc(c23)C1=O)NO", "note": "[nullscript, 4-(1,3-Dioxo-1H,3H-benzo[de]isoquinolin-2-yl)-N-hydroxy-butyramide]", "values": [{"measurement": "transcriptional facilitation (in words)", "setting": "[3]", "result": "inactive"}, {"measurement": "transcriptional facilitation (in words)", "setting": "[3]; listed as Nullscipt", "result": "does not facilitate transcription"}, {"measurement": "induction of luciferase activity relative to control wells", "setting": "[7]", "result": "did not induce"}]}
